Results: US20100041089A1, “IMPROVED METHOD FOR DETECTING CHEMICAL […]” (priority 2006, published 2010)

System: yeast genes (expressed mRNA)
Test: DNA chip measurement of expressed mRNA of yeast genes after culture with a toxic chemical substance
Type: cell-based, Saccharomyces cerevisiae S288C
Conditions: for level of expressed mRNA in the presence of chemical substance / level in the absence of chemical substance: cultured two hours with the chemical substance; for The level of expressed mRNA in the presence of chemical substance/The level of expressed mRNA in the absence of chemical substance: cultured two hours with substance
Procedure, shortened: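 S. cerevisiae S288C grown at 25 °C in YPD, exposed in log phase for 2 h to a toxicant at growth-inhibiting, non-lethal concentration. Cy3/Cy5-labelled cDNA from poly(A) mRNA hybridized to whole-genome chip at 65 °C >12 h. Ratio to untreated control, ≥2 significant.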

Structure (SMILES): CCCCCCCCCCCCc1ccc(S(=O)(=O)[O-])cc1.[Na+] [(17), Sodium dodecylbenzosulfonate]
- The level of expressed mRNA in the presence of chemical substance/The level of expressed mRNA in the absence of chemical substance, yeast gene YBR036C (gene YBR036C, Metabolism protein genes, DNA chip fluorescence ratio): 2.1
- The level of expressed mRNA in the presence of chemical substance/The level of expressed mRNA in the absence of chemical substance, yeast gene YBR298C (gene YBR298C, Metabolism protein genes, DNA chip fluorescence ratio): 0.9
- The level of expressed mRNA in the presence of chemical substance/The level of expressed mRNA in the absence of chemical substance, yeast gene YDL067C (gene YDL067C (mitochondria-located protein gene), yeast cultured two hours with chemical substance, DNA chip fluorescence ratio to control): 1.2
- The level of expressed mRNA in the presence of chemical substance/The level of expressed mRNA in the absence of chemical substance, yeast gene YDL078C (gene YDL078C, Metabolism protein genes, DNA chip fluorescence ratio): 1.1
- The level of expressed mRNA in the presence of chemical substance/The level of expressed mRNA in the absence of chemical substance, yeast gene YDL215C (gene YDL215C, Metabolism protein genes, DNA chip fluorescence ratio): 1.1
- The level of expressed mRNA in the presence of chemical substance/The level of expressed mRNA in the absence of chemical substance, yeast gene YDR079W (gene YDR079W (mitochondria-located protein gene), yeast cultured two hours with chemical substance, DNA chip fluorescence ratio to control): 1.1
- The level of expressed mRNA in the presence of chemical substance/The level of expressed mRNA in the absence of chemical substance, yeast gene YDR297W (gene YDR297W, Metabolism protein genes, DNA chip fluorescence ratio): 1.9
- The level of expressed mRNA in the presence of chemical substance/The level of expressed mRNA in the absence of chemical substance, yeast gene YDR387C (gene YDR387C, Metabolism protein genes, DNA chip fluorescence ratio): 1.2
- The level of expressed mRNA in the presence of chemical substance/The level of expressed mRNA in the absence of chemical substance, yeast gene YGL035C (gene YGL035C, Metabolism protein genes, DNA chip fluorescence ratio): 0.9
- The level of expressed mRNA in the presence of chemical substance/The level of expressed mRNA in the absence of chemical substance, yeast gene YGR062C (gene YGR062C (mitochondria-located protein gene), yeast cultured two hours with chemical substance, DNA chip fluorescence ratio to control): 0.9
- The level of expressed mRNA in the presence of chemical substance/The level of expressed mRNA in the absence of chemical substance, yeast gene YGR287C (gene YGR287C, Metabolism protein genes, DNA chip fluorescence ratio): 1.0
- The level of expressed mRNA in the presence of chemical substance/The level of expressed mRNA in the absence of chemical substance, yeast gene YJL070C (gene YJL070C, Metabolism protein genes, DNA chip fluorescence ratio): 1.1
- The level of expressed mRNA in the presence of chemical substance/The level of expressed mRNA in the absence of chemical substance, yeast gene YJL096W (gene YJL096W (mitochondria-located protein gene), yeast cultured two hours with chemical substance, DNA chip fluorescence ratio to control): 1.1
- The level of expressed mRNA in the presence of chemical substance/The level of expressed mRNA in the absence of chemical substance, yeast gene YJL180C (gene YJL180C (mitochondria-located protein gene), yeast cultured two hours with chemical substance, DNA chip fluorescence ratio to control): 0.9
- The level of expressed mRNA in the presence of chemical substance/The level of expressed mRNA in the absence of chemical substance, yeast gene YKR009C (gene YKR009C, Metabolism protein genes, DNA chip fluorescence ratio): 1.9
- The level of expressed mRNA in the presence of chemical substance/The level of expressed mRNA in the absence of chemical substance, yeast gene YLR295C (gene YLR295C (mitochondria-located protein gene), yeast cultured two hours with chemical substance, DNA chip fluorescence ratio to control): 0.9
- The level of expressed mRNA in the presence of chemical substance/The level of expressed mRNA in the absence of chemical substance, yeast gene YLR351C (gene YLR351C, Metabolism protein genes, DNA chip fluorescence ratio): 1.3
- The level of expressed mRNA in the presence of chemical substance/The level of expressed mRNA in the absence of chemical substance, yeast gene YLR375W (gene YLR375W, Metabolism protein genes, DNA chip fluorescence ratio): 1.0
- The level of expressed mRNA in the presence of chemical substance/The level of expressed mRNA in the absence of chemical substance, yeast gene YMR023C (gene YMR023C (mitochondria-located protein gene), yeast cultured two hours with chemical substance, DNA chip fluorescence ratio to control): 1.1
- The level of expressed mRNA in the presence of chemical substance/The level of expressed mRNA in the absence of chemical substance, yeast gene YMR267W (gene YMR267W (mitochondria-located protein gene), yeast cultured two hours with chemical substance, DNA chip fluorescence ratio to control): 0.9
- The level of expressed mRNA in the presence of chemical substance/The level of expressed mRNA in the absence of chemical substance, yeast gene YMR267W (gene YMR267W, Metabolism protein genes, DNA chip fluorescence ratio): 0.9
- The level of expressed mRNA in the presence of chemical substance/The level of expressed mRNA in the absence of chemical substance, yeast gene YMR278W (gene YMR278W, Metabolism protein genes, DNA chip fluorescence ratio): 1.0
- The level of expressed mRNA in the presence of chemical substance/The level of expressed mRNA in the absence of chemical substance, yeast gene YMR293C (gene YMR293C, Metabolism protein genes, DNA chip fluorescence ratio): 0.8
- The level of expressed mRNA in the presence of chemical substance/The level of expressed mRNA in the absence of chemical substance, yeast gene YNL073W (gene YNL073W (mitochondria-located protein gene), yeast cultured two hours with chemical substance, DNA chip fluorescence ratio to control): 0.8
- The level of expressed mRNA in the presence of chemical substance/The level of expressed mRNA in the absence of chemical substance, yeast gene YNR072W (gene YNR072W, Metabolism protein genes, DNA chip fluorescence ratio): 1.3
- The level of expressed mRNA in the presence of chemical substance/The level of expressed mRNA in the absence of chemical substance, yeast gene YOL096C (gene YOL096C, Metabolism protein genes, DNA chip fluorescence ratio): 1.2
- The level of expressed mRNA in the presence of chemical substance/The level of expressed mRNA in the absence of chemical substance, yeast gene YOR180C (gene YOR180C, Metabolism protein genes, DNA chip fluorescence ratio): 0.9
- The level of expressed mRNA in the presence of chemical substance/The level of expressed mRNA in the absence of chemical substance, yeast gene YOR316C (gene YOR316C (mitochondria-located protein gene), yeast cultured two hours with chemical substance, DNA chip fluorescence ratio to control): 0.8
- The level of expressed mRNA in the presence of chemical substance/The level of expressed mRNA in the absence of chemical substance, yeast gene YOR363C (gene YOR363C, Metabolism protein genes, DNA chip fluorescence ratio): 1.3
- The level of expressed mRNA in the presence of chemical substance/The level of expressed mRNA in the absence of chemical substance, yeast gene YPL040C (gene YPL040C (mitochondria-located protein gene), yeast cultured two hours with chemical substance, DNA chip fluorescence ratio to control): 0.8
- The level of expressed mRNA in the presence of chemical substance/The level of expressed mRNA in the absence of chemical substance, yeast gene YPL134C (gene YPL134C (mitochondria-located protein gene), yeast cultured two hours with chemical substance, DNA chip fluorescence ratio to control): 1.3
- The level of expressed mRNA in the presence of chemical substance/The level of expressed mRNA in the absence of chemical substance, yeast gene YPR184W (gene YPR184W, Metabolism protein genes, DNA chip fluorescence ratio): 1.0
- level of expressed mRNA in the presence of chemical substance / level in the absence of chemical substance (yeast gene YAL018C): 0.9
- The level of expressed mRNA in the presence of chemical substance/The level of expressed mRNA in the absence of chemical substance (yeast gene YAL053W): 1.2
- level of expressed mRNA in the presence of chemical substance / level in the absence of chemical substance (yeast gene YAR047C): 1.7
- level of expressed mRNA in the presence of chemical substance / level in the absence of chemical substance (yeast gene YAR064W): 0.9
- level of expressed mRNA in the presence of chemical substance / level in the absence of chemical substance (yeast gene YBL044W): 0.8
- The level of expressed mRNA in the presence of chemical substance/The level of expressed mRNA in the absence of chemical substance (yeast gene YBL048W): 1.3
- The level of expressed mRNA in the presence of chemical substance/The level of expressed mRNA in the absence of chemical substance (yeast gene YBL107C): 0.9
- level of expressed mRNA in the presence of chemical substance / level in the absence of chemical substance (yeast gene YBR012C): 1.4
- level of expressed mRNA in the presence of chemical substance / level in the absence of chemical substance (yeast gene YBR066C): 1.2
- level of expressed mRNA in the presence of chemical substance / level in the absence of chemical substance (yeast gene YBR124W): 0.9
- level of expressed mRNA in the presence of chemical substance / level in the absence of chemical substance (yeast gene YBR162C): 1.2
- level of expressed mRNA in the presence of chemical substance / level in the absence of chemical substance (yeast gene YBR287W): 3.2
- level of expressed mRNA in the presence of chemical substance / level in the absence of chemical substance (yeast gene YCL042W): 0.8
- level of expressed mRNA in the presence of chemical substance / level in the absence of chemical substance (yeast gene YCL056C): 1.2
- level of expressed mRNA in the presence of chemical substance / level in the absence of chemical substance (yeast gene YCR007C): 2.6
- level of expressed mRNA in the presence of chemical substance / level in the absence of chemical substance (yeast gene YDL046W): 1.2
- The level of expressed mRNA in the presence of chemical substance/The level of expressed mRNA in the absence of chemical substance (yeast gene YDL072C): 1.6
- The level of expressed mRNA in the presence of chemical substance/The level of expressed mRNA in the absence of chemical substance (yeast gene YDL204W): 1.8
- The level of expressed mRNA in the presence of chemical substance/The level of expressed mRNA in the absence of chemical substance (yeast gene YDL222C): 0.9
- level of expressed mRNA in the presence of chemical substance / level in the absence of chemical substance (yeast gene YDR090C): 1.1
